Columns and labels:
[1] = molecular target: T1, CYP3A4 (Homo sapiens, UniProt P08684); experiment: CYP3A4 inhibition, testosterone 6β-hydroxylation in pooled HLMs; format: in vitro ADME
T1 construct: CYP3A4 catalyzed reactions (testosterone 6β-hydroxylation) in pooled HLM; from tissue; host or cells: pooled human liver microsomes
Experimental: (§1) All incubations were performed in triplicate, and the mean values were utilized. The typical incubation systems contained 100 mM potassium phosphate buffer (pH 7.4), NADPH-generating system (1 mM NADP^+, 10 mM glucose-6-phosphate, 1 U/mL of glucose-6-phosphate dehydrogenase, and 4 mM MgCl2), the appropriate concentration of HLM, a corresponding probe substrate and DHM (or positive inhibitor for different probe reactions) in a final volume of 200 μL.
(§2) The concentration of DHM was 100 μM, and the positive inhibitor concentrations were as follows: 10 μM furafylline for CYP1A2, 1 μM ketoconazole for CYP3A4, 10 μM tranylcypromine for CYP2A6, 50 μM clomethiazole for CYP2E1, 10 μM quinidine for CYP2D6, 10 μM sulphaphenazole for CYP2C9, 50 μM tranylcypromine for CYP2C19 and 5 μM montelukast for CYP2C8. Probe substrates, positive inhibitors (except for dextromethorphan and quinidine which were dissolved in water) and DHM were dissolved in methanol, with a final concentration of 1% (v/v), and 1% neat methanol was added to the incubations without inhibitor. There was a 3-min preincubation period (at 37 °C) before the reaction was initiated by adding a NADPH-generating system. The reaction was terminated by adding a 100 μL acetonitrile (10% trichloroacetic acid for CYP2A6) internal standard mix, and the solution was placed on ice. The mixture was centrifuged at 12,000 rpm for 10 min, and an aliquot (50 μL) of supernatant was transferred for HPLC analysis. The instrument used in this study were Agilent 1260 series instrument with DAD and FLD detector (Agilent Technologies, Palo Alto, CA), and the quantitative assay for the corresponding metabolites was performed as previously reported by us (Zhang et al. [2016]).
(§3) A 100 μM DHM was used to initially screen for its direct inhibitory effects toward different human CYP isoforms. […] The residual activity of the CYP isoforms were measured by adding different concentrations of DHM (0–100 μM), and then the IC50 values were calculated. […]
(§4) The enzyme kinetic parameters for the probe reaction were estimated from the best fit line using least-squares linear regression of the inverse substrate concentration versus the inverse velocity (Lineweaver–Burk plots), and the mean values were used to calculate Vmax and Km. Inhibition data from the experiments that were conducted using multiple compound concentrations were represented by Dixon plots, and inhibition constant (Ki) values were calculated using non-linear regression according to the following equation: v=(VmaxS)/(Km(1+I/Ki)+S), where I is the concentration of the compound, Ki is the inhibition constant, S is the concentration of the substrate and Km is the substrate concentration at half the maximum velocity (Vmax) of the reaction. […]

[2] = molecular target: T1, CYP3A4; experiment: Time-dependent inhibition study of CYP3A4 in HLMs; format: in vitro ADME
Experimental: (§5) To determine whether DHM could inhibit the activity of CYP3A4, CYP2E1 and CYP2D6 in a time-dependent manner, DHM (20 μM) was pre-incubated with HLMs (1 mg/mL) in the presence of an NADPH-generating system for 30 min at 37 °C. After incubation, an aliquot (20 μL) was transferred to another incubation tube (a final volume of 200 μL) containing an NADPH-generating system and probe substrates whose final concentrations were approximate to Km. Then, further incubations were performed to measure the residual activity. After being incubated for 10 and 30 min, the reactions were terminated by adding a 100 μL acetonitrile internal standard mix and then placed on ice; the corresponding metabolites was determined by HPLC.
To determine the KI and kinact values for the inactivation of CYP3A4, the incubations were conducted using higher probe substrate concentrations (approximately four-fold Km values) and various concentrations of DHM (0–50 μM) after different preincubation times (0–30 min), with a two-step incubation scheme, as described above.

[3] = molecular target: T2, CYP2C8 (Homo sapiens, UniProt P10632); experiment: CYP2C8 inhibition, paclitaxel 6α-hydroxylation in pooled HLMs; format: in vitro ADME; conditions: DHM 100 μM
T2 construct: from tissue; host or cells: pooled human liver microsomes
T2 sequence (P10632 1-490): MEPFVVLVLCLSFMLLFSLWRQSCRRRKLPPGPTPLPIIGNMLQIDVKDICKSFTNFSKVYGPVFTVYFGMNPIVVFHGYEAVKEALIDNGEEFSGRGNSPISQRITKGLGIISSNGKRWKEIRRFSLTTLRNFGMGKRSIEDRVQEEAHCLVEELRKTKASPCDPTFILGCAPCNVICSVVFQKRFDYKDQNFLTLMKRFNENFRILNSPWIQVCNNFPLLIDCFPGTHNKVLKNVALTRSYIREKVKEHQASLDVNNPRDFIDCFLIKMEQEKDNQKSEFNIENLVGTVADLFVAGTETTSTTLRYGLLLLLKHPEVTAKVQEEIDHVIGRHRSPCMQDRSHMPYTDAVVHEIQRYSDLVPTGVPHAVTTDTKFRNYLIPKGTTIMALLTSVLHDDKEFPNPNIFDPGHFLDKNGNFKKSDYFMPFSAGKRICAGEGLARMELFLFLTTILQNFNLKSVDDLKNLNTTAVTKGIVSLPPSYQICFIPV
Experimental: as §1
as §2, with “There was a 3-min preincubation period (at 37 °C) before the reaction was initiated by adding a NADPH-generating system. The reaction was terminated by adding a 100 μL acetonitrile (10% trichloroacetic acid for CYP2A6) internal standard mix, and the solution was placed on ice. The mixture was centrifuged at 12,000 rpm for 10 min, and an aliquot (50 μL) of supernatant was transferred for HPLC analysis.” left out, “[2016]). […]” for “[2016]).”

[4] = molecular target: T3, CYP2A6 (Homo sapiens, UniProt P11509); experiment: CYP2A6 inhibition, coumarin 7-hydroxylation in pooled HLMs; format: in vitro ADME; conditions: DHM 100 μM
T3 construct: from tissue; host or cells: pooled human liver microsomes
T3 sequence (P11509 1-494): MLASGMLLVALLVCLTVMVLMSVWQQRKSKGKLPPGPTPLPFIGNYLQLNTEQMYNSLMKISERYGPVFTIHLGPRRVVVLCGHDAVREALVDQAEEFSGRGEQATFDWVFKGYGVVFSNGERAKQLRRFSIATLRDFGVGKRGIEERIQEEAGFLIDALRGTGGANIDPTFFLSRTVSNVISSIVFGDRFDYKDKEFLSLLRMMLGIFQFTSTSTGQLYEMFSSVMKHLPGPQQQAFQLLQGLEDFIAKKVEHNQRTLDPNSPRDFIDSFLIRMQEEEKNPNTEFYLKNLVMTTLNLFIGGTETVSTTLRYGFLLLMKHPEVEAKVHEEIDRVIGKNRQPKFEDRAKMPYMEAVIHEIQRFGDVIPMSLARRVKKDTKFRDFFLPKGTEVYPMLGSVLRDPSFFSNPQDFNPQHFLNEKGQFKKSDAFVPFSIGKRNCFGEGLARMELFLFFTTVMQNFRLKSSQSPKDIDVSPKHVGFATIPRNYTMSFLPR
Experimental: as §1
as §2, with “There was a 3-min preincubation period (at 37 °C) before the reaction was initiated by adding a NADPH-generating system. The reaction was terminated by adding a 100 μL acetonitrile (10% trichloroacetic acid for CYP2A6) internal standard mix, and the solution was placed on ice. The mixture was centrifuged at 12,000 rpm for 10 min, and an aliquot (50 μL) of supernatant was transferred for HPLC analysis.” left out, “[2016]). […]” for “[2016]).”

[5] = molecular target: T4, CYP2E1 (Homo sapiens, UniProt P05181); experiment: Time-dependent inhibition study of CYP2E1 in HLMs; format: in vitro ADME; conditions: DHM 20 μM, pre-incubation with HLM and NADPH for 30 min
T4 construct: CYP2E1 catalyzed reactions (chlorzoxazone 6-hydroxylation) in pooled HLM; from tissue; host or cells: pooled human liver microsomes
T4 sequence (P05181 whole entry): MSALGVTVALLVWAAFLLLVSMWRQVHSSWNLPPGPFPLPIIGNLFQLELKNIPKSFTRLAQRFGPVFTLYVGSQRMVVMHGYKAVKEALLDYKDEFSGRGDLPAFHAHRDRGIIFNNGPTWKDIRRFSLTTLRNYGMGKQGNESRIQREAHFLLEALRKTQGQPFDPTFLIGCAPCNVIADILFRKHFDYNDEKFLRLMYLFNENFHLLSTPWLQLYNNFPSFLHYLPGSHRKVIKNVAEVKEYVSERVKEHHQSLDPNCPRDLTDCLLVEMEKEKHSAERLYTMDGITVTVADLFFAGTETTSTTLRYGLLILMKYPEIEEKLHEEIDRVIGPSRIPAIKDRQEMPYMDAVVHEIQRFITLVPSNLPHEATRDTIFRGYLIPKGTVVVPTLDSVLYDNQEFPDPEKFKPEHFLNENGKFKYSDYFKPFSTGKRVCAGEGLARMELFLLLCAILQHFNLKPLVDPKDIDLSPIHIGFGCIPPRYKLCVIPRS
Experimental: as §5

[6] = molecular target: T5, CYP2C9 (Homo sapiens, UniProt P11712); experiment: CYP2C9 inhibition, diclofenac 4'-hydroxylation in pooled HLMs; format: in vitro ADME; conditions: DHM 100 μM
T5 construct: from tissue; host or cells: pooled human liver microsomes
T5 sequence (P11712 whole entry): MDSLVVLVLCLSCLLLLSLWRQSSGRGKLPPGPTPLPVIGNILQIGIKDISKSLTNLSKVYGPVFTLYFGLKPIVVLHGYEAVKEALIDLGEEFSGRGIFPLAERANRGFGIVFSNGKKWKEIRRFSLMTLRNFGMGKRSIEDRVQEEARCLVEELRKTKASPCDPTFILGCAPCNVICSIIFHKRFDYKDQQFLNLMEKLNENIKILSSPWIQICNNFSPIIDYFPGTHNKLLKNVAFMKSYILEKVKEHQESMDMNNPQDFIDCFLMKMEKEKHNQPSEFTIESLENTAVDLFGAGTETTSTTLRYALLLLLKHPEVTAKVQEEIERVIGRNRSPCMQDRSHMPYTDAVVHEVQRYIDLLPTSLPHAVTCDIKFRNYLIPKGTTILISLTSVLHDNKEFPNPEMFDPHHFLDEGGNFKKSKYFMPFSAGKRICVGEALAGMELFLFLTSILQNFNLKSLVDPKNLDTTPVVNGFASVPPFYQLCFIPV
Experimental: as §1
as §2, with “There was a 3-min preincubation period (at 37 °C) before the reaction was initiated by adding a NADPH-generating system. The reaction was terminated by adding a 100 μL acetonitrile (10% trichloroacetic acid for CYP2A6) internal standard mix, and the solution was placed on ice. The mixture was centrifuged at 12,000 rpm for 10 min, and an aliquot (50 μL) of supernatant was transferred for HPLC analysis.” left out, “[2016]). […]” for “[2016]).”

[7] = molecular target: T4, CYP2E1; experiment: CYP2E1 inhibition, chlorzoxazone 6-hydroxylation in pooled HLMs; format: in vitro ADME
[8] = molecular target: T6, CYP1A2 (Homo sapiens, UniProt P05177); experiment: CYP1A2 inhibition, phenacetin O-deethylation in pooled HLMs; format: in vitro ADME; conditions: DHM 100 μM
T6 construct: from tissue; host or cells: pooled human liver microsomes
T6 sequence (P05177 1-516): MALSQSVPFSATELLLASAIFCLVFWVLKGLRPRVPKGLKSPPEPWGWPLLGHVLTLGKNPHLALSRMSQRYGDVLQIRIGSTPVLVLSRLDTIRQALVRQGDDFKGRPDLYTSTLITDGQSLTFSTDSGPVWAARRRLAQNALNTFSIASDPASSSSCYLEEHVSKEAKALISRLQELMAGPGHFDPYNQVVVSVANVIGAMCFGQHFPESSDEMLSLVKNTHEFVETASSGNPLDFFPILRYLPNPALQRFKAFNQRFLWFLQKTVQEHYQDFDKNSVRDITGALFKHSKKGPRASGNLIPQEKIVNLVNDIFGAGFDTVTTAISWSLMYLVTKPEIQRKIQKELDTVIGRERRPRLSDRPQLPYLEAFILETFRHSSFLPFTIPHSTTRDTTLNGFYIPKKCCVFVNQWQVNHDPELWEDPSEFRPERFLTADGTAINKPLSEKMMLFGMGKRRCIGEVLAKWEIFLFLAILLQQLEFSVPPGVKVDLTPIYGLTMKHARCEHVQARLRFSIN
Experimental: as §1
as §2, with “There was a 3-min preincubation period (at 37 °C) before the reaction was initiated by adding a NADPH-generating system. The reaction was terminated by adding a 100 μL acetonitrile (10% trichloroacetic acid for CYP2A6) internal standard mix, and the solution was placed on ice. The mixture was centrifuged at 12,000 rpm for 10 min, and an aliquot (50 μL) of supernatant was transferred for HPLC analysis.” left out, “[2016]). […]” for “[2016]).”

[9] = molecular target: T7, CYP2D6 (Homo sapiens, UniProt P10635); experiment: Time-dependent inhibition study of CYP2D6 in HLMs; format: in vitro ADME; conditions: DHM 20 μM, pre-incubation with HLM and NADPH for 30 min
T7 construct: CYP2D6 catalyzed reactions (dextromethorphan O-demethylation) in pooled HLM; from tissue; host or cells: pooled human liver microsomes
T7 sequence (P10635 whole entry): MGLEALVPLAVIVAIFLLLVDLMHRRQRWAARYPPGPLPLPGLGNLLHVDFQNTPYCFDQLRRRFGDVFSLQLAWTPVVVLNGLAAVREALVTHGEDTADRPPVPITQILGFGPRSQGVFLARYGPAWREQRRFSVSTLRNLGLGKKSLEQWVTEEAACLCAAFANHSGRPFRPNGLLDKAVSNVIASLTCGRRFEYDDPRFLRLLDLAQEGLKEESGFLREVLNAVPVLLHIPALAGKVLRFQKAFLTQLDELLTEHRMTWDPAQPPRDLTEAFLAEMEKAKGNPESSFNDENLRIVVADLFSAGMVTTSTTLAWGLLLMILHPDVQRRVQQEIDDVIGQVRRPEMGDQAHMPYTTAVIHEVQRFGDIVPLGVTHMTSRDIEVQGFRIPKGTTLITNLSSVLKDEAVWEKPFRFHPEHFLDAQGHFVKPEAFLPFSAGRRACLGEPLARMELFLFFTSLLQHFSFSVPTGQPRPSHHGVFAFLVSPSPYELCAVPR
Experimental: as §5

[10] = molecular target: T7, CYP2D6; experiment: CYP2D6 inhibition, dextromethorphan O-demethylation in pooled HLMs; format: in vitro ADME
Experimental: as §1, §2, §3, §4

[11] = molecular target: T8, CYP2C19 (Homo sapiens, UniProt P33261); experiment: CYP2C19 inhibition, S-mephenytoin 4-hydroxylation in pooled HLMs; format: in vitro ADME; conditions: DHM 100 μM
T8 construct: from tissue; host or cells: pooled human liver microsomes
T8 sequence (P33261 whole entry): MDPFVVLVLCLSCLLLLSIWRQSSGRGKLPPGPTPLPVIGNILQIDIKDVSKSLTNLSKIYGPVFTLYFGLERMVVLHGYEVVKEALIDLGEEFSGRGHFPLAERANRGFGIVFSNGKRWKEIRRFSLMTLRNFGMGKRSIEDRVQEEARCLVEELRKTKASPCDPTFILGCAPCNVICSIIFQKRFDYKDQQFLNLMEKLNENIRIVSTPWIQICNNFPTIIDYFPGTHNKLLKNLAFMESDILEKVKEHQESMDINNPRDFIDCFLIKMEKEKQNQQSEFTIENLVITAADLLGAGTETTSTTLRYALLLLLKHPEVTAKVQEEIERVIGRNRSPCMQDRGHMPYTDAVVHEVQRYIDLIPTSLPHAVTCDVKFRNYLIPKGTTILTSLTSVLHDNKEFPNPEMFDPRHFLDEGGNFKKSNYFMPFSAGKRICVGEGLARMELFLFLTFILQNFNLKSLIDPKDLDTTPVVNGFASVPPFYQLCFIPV
Experimental: as §1
as §2, with “There was a 3-min preincubation period (at 37 °C) before the reaction was initiated by adding a NADPH-generating system. The reaction was terminated by adding a 100 μL acetonitrile (10% trichloroacetic acid for CYP2A6) internal standard mix, and the solution was placed on ice. The mixture was centrifuged at 12,000 rpm for 10 min, and an aliquot (50 μL) of supernatant was transferred for HPLC analysis.” left out, “[2016]). […]” for “[2016]).”

[12] = design: method as in Zhang et al. [2007]; Tong et al. [2015]; conditions: rats, oral administration of 1564.8 mg/kg of Rattan Tea decoction; ref Zhang et al. [2007]; Tong et al. [2015]; cited from earlier work

T1 sequence (P08684 whole entry): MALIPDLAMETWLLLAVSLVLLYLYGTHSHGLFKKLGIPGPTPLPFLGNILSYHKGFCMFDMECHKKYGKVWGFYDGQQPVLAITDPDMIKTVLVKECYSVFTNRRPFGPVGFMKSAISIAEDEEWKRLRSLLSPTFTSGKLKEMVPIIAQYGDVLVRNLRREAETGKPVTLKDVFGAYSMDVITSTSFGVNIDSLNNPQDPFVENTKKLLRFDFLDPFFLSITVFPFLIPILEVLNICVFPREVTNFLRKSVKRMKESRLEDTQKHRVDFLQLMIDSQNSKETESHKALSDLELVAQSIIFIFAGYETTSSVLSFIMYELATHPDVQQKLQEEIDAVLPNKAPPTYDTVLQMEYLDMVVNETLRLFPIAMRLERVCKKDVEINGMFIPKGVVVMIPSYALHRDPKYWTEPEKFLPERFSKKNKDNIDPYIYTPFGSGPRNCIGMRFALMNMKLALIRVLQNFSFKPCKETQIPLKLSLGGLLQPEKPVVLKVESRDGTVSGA

IC50 ([1]; DHM 0–100 μM, pooled HLMs): 14.8 µM
Manner of inhibition of CYP3A4 ([1]; Lineweaver–Burk plots): non-competitive
inhibition at 100 μM ([1]; human, pooled human liver microsomes, pH 7.4, probe testosterone (6β-hydroxylation), DHM 100 μM, pooled HLMs, read-out: CYP3A4 activity inhibited to % of control activity): 87.7%
Ki ([1]; secondary Lineweaver–Burk plot, testosterone 20–100 μM, pooled HLM): 6.06 µM
Time-dependent inhibition: activity of CYP3A4 after pre-incubation ([2]; DHM 20 μM, pre-incubation with HLM and NADPH for 30 min): decreased with the incubation time
KI (inactivation) ([2]; human, human liver microsomes, DHM 0–50 μM, preincubation 0–30 min, non-linear regression, HLM): 12.2 µM
kinact ([2]; human, human liver microsomes, DHM 0–50 μM, preincubation 0–30 min, non-linear regression, HLM, read-out: Kinact for inactivation of CYP3A4 (converted)): 0.00095 s⁻¹
CYP3A4 inactivated each minute ([2]; saturating concentration of DHM incubated with HLM, implied by Kinact): approximately 5.7%
Inhibition of CYP2C8 activity [3]: did not inhibit
Inhibition of CYP2A6 activity [4]: did not inhibit
Time-dependent inhibition: activity of CYP2E1 after pre-incubation [5]: not affected
Inhibition of CYP2C9 activity [6]: did not inhibit
IC50 ([7]; DHM 0–100 μM, pooled HLMs): 25.7 µM
Manner of inhibition of CYP2E1 ([7]; Lineweaver–Burk plots): competitive
inhibition at 100 μM ([7]; human, pooled human liver microsomes, pH 7.4, probe chlorzoxazone (6-hydroxylation), DHM 100 μM, pooled HLMs, read-out: CYP2E1 activity inhibited to % of control activity): 74.6%
Ki ([7]; secondary Lineweaver–Burk plot, chlorzoxazone, DHM 0–50 μM, pooled HLM): 9.24 µM
Inhibition of CYP1A2 activity [8]: did not inhibit
Time-dependent inhibition: activity of CYP2D6 after pre-incubation [9]: not affected
IC50 ([10]; DHM 0–100 μM, pooled HLMs): 22.7 µM
Manner of inhibition of CYP2D6 ([10]; Lineweaver–Burk plots): competitive
inhibition at 100 μM ([10]; human, pooled human liver microsomes, pH 7.4, probe dextromethorphan (O-demethylation), DHM 100 μM, pooled HLMs, read-out: CYP2D6 activity inhibited to % of control activity): 85.3%
Ki ([10]; secondary Lineweaver–Burk plot, dextromethorphan 5–50 μM, DHM 0–50 μM, pooled HLM): 10.5 µM
Inhibition of CYP2C19 activity [11]: did not inhibit
SMILES: O=C1c2c(O)cc(O)cc2O[C@H](c2cc(O)c(O)c(O)c2)[C@H]1O [DHM, Dihydromyricetin]
Cmax [12]: 1.7 µg/mL
